The values below come from a melting point compilation (Tetko et al.; mined from patent text by program, amines drawn as free bases though some values may be those of a salt).

The structures appear in SMILES notation.

As a reminder, the melting point is the temperature of the solid-liquid transition.

The compound `CCC(CC)C(=O)C(C1CCc2ccccc2N1)N1CCN(c2cccc3[nH]ccc23)CC1` (stereo unspecified) registered a melting point of 145 to 148 °C.
The compound `Cc1cc(O)c(SCc2ccc(F)cc2)c(=O)o1` returned a melting point of 114 to 118 °C.
In turn, `CCNc1ccc2c(c1)N1CCN=C1S2` came in with a melting point of 239 to 246 °C.
Regarding `CNC(=O)Cc1c(-c2ccccc2)nn2cccnc12`, the melting point fell in the range of 211 to 213 °C.
Regarding `COc1cc(N)c(Cl)cc1C(=O)NCC1CCN(CCC(=O)c2ccc(O)cc2)CC1`, the melting point lay in the range of 191 to 193 °C.
For the compound `CCCCCCCCCCCCCCOc1cc(OCCCCCCCCCCCCCC)cc(C(=O)N(CC(=O)O)CC(=O)O)c1`, the melting point fell in the range of 88 to 90 °C.
`O=C(O)CCCc1cc2cc(C(F)(F)F)ccc2n1S(=O)(=O)c1ccc2c(c1)CCN2` registered a melting point of 175 °C.
As to `CC(C)(CF)C(=O)C(Oc1cccc(F)n1)n1cncn1` (stereo unspecified), the melting point came to 116 °C.
As to `Cc1nc2c(C)cc(Oc3cnc(N)nc3N)c(C(C)C)c2o1`, the melting point was over 300 °C.
On to `N#Cc1c(N2CCc3ccccc3CC2)nc(N)[nH]c1=O`, for which the melting point is over 200 °C.
For the compound `CS(=O)(=O)c1ccc(-c2oc(CO)nc2-c2ccc(F)cc2)cc1`, the melting point lay in the range of 156 to 157 °C.
`COc1ccc2c(c1)c(CC(=O)OCCNC(=O)C1=CN(C)C=CC1)c(C)n2C(=O)c1ccc(Cl)cc1`: the melting point fell in the range of 60 to 65 °C.
`CCCCCCCCNC(=O)ON=C(Cc1ccccc1)C1=CC(=O)C(C)(C)O1`: the melting point fell in the range of 67 to 68 °C.
Regarding `CCCOc1ccnc2c1c(C(C)=O)cn2S(=O)(=O)c1ccccc1`, the melting point lay in the range of 119 to 121 °C.
The result for `C/C=C/c1c(N)nc(-c2ccc(Cl)c(OC)c2F)nc1C(=O)OC` reads 133 to 135 °C; that for `CCCNC(=O)Nc1ccc(SC)cc1C(=O)NCC1CCN(C(c2ccccc2)c2ccccc2)CC1`, 196 to 198 °C.
The result for `O=C(NCCCl)Sc1ncnc2nc[nH]c12` reads 221 to 223 °C; that for `COc1ccc(CN2C(=O)C3(COc4cc5onc(N)c5cc43)c3ccccc32)cc1` (stereo unspecified), 214 to 216 °C.
The result for `CCCNc1nnc(C)o1` reads 46.5 to 47.5 °C; that for `Cc1cccc(C(=O)c2ccccc2F)c1N`, 65.5 to 67.5 °C.
`COc1ccc(-c2ncc(N(C)CCCCOCC(=O)O)nc2-c2ccc(OC)cc2)cc1` came in with a melting point of 128 to 130 °C.
As for `O=C(NCCN1CCCCC1)c1ccc(=O)n(Cc2ccc(-c3ccccc3)cc2)c1`, the melting point is 137 to 142 °C.
As for `O=Cc1cccc(-c2ccco2)n1`, the figure is 46 to 48 °C; as for `COc1ccc(Nc2nc(NC3CCCCCC3)nc(Oc3ccc(C#CC(C)(C)O)cc3)n2)cc1Cl`, 132 to 134 °C.
Turning to `CCOc1ccc2[nH]c3c(c2c1)C[C@@](C)(C(=O)OC)N[C@@H]3c1cccc(O)c1` (racemic), the melting point was 173 to 175 °C.
`c1nnc2c3c(c(NCCCCN4CCCC4)nn12)CCCC3` gave a melting point of 158 to 160 °C.
For `CCCCCCCNC(=O)Nc1ccccc1C(=O)NCCn1cnc(-c2ccccc2)c1-c1ccccc1`, the melting point is 170 °C.
`N#Cc1cc(S(=O)(=O)c2ccc(Cl)cc2)[nH]c1-c1ccc(Cl)cc1` had a melting point of 159 to 160 °C.
On to `CC(C(=O)N1CCCC(C)(C)C1)N(C(=O)CN1C(=O)c2ccccc2C1=O)c1ccccc1` (racemic), for which the melting point is 171 °C.
`O=C(C=Cc1ccc(CNC2CCCCC2)cc1)Nc1ccc(-c2ccc(Cl)cc2)cc1`: the melting point lay in the range of 247 to 248 °C.
The compound `CC(C)c1nn(-c2ncccn2)c(-c2ccc(F)cc2)c1Br` returned a melting point of 130 to 133 °C.
`O=C(CN1c2nc(-c3ccncc3)cc(=O)n2CCC1c1ccccc1)c1ccc2ccccc2c1` (stereo unspecified) showed a melting point of 226 to 228 °C.
For the compound `CCN(CC)CCOc1ccc(Nc2ncc3c(n2)N(Cc2ccccc2)C(=O)N(c2c(Cl)cccc2Cl)C3)cc1`, the melting point turned out to be 106 °C.
The result for `CN1C(=O)CC[C@]2(C)c3ccc(-c4ccc(O)c(F)c4)cc3CC[C@@H]12` reads over 240 °C; that for `COC(=O)CC1C(=O)Nc2cc(S(N)(=O)=O)sc2S1(=O)=O` (stereo unspecified), 223 to 225 °C.
The result for `CC(=O)OCC(=O)C1C(C)CC2C3CC(Cl)C4=CC(=O)C=CC4(C)C3=CCC21C` (stereo unspecified) reads 181 °C; that for `O=C(CN1CCN(c2ccccc2)CC1)N1CCC(C(=O)N2CCC2)(c2cccc(C(F)(F)F)c2)CC1`, 147 to 149 °C.
As for `NC(=O)/C=C1\CCc2c(F)cc(Cl)cc21`, the figure is 171 to 173 °C; as for `O=C(c1ccc(F)cc1)C1CCN(CCO)CC1`, 45 to 47 °C.
`CC(=O)OCc1csc(Nc2ccc(Oc3ccccc3)cn2)n1`: the melting point was 158 to 160 °C.
For the compound `CON=C(c1ncno1)c1ccccc1COc1ccc(Cl)cc1`, the melting point was 96 to 97.5 °C.
As for `Cc1nn(-c2ccncc2)c2nc3cc(F)c(F)cc3c(Cl)c12`, the figure is 226 to 228 °C; as for `CC(C#N)(CNC(=O)c1n[nH]cc1NC(=O)c1ccccn1)Cc1ccccc1` (stereo unspecified), 196 to 197 °C.
As for `FC(F)(F)C1(c2cc(Cl)cc(Cl)c2)CC(c2ccc(Br)c3ccccc23)=NO1` (stereo unspecified), the figure is 127 to 130 °C; as for `CC(C)(Cl)C(COCc1ccc([N+](=O)[O-])o1)N=O` (stereo unspecified), 134 to 135 °C.
`Clc1ccc2c(c1)C(c1ccccc1)=NCC1CNCCN21` (stereo unspecified) registered a melting point of 132 to 135 °C.
`COc1ccc(C(=CC#N)c2cc(OC)c(OC)c(OC)c2)cc1N` showed a melting point of 97 to 99 °C.
As for `CC(=O)N1N=C2C(=Cc3cccc(C(F)(F)F)c3)CS(=O)(=O)CC2C1c1cccc(C(F)(F)F)c1` (stereo unspecified), the figure is 200 to 202 °C; as for `CC(C)(N)c1ccc(-c2nc(Nc3cc(F)c(F)c(F)c3)ncc2C#N)cc1`, 220 °C; as for `O=C(CC1CCC(CC(=O)Oc2cc(O)cc(O)c2)CC1)Oc1cc(O)cc(O)c1` (stereo unspecified), 215 to 220 °C.
As for `COc1cc(C(=O)c2c(-c3ccc(OCCN4CCCC4)c(COCc4ccccc4)c3)sc3cc(O)ccc23)ccc1CN1CCOCC1`, the figure is 87 to 90 °C; as for `Cc1c2c(c(Cc3ccc(C(C)C)cc3)c(C)c1NC(=O)NC(C)(C)C)OCC2`, 197 to 198 °C; as for `Nc1cc(-n2cccc2)ccc1Nc1cccc(-c2ccccn2)c1`, 135 to 140 °C.
`CC1=C(C(=O)OC(C)(C)C)C(c2ccc(C)cc2C)C(C(=O)OC(C)(C)C)=C(C)N1` yielded a melting point of 197 to 198 °C.
`C=CCSC(C(=O)NC(C)=O)C(c1ccccc1)(c1ccccc1)c1ccccc1` (stereo unspecified) showed a melting point of 193 to 194 °C.
As for `CC(C)(C)c1ccc2c(c1)c(Sc1ccccc1)c(CC(=O)O)n2Cc1ccc(Cl)cc1`, the melting point was in the range of 148 to 150 °C.
The result for `COC(=O)COc1ccc(C(=O)C(C)C)cc1` reads 45 to 46 °C; that for `CCNc1cc(Oc2ccc(NC(=O)NC3Cc4ccc(Br)cc4C3)cc2)ncn1` (stereo unspecified), 247 °C; that for `CC1(C)Sc2nccn2C1=NOC(=O)CNSCNC(=O)ON=C1n2ccnc2SC1(C)C`, 177 to 180 °C.
For the compound `C(#Cc1cnc2ccccc2c1)CCN1CCN(c2ccccn2)CC1`, the melting point was in the range of 76.5 to 77 °C.
`CCOP(=O)(C/C=C/CNc1c(N)c(=O)c1=O)OCC` came in with a melting point of 145 to 147 °C.
